# Results from patent publication US12492181B2, “Gem-disubstituted piperidine melanocortin subtype-2 receptor (MC2R) antagonists and uses thereof” (Crinetics Pharmaceuticals, Inc., priority 2019, dated 2025).
# Target: T1, hMC2 receptor (crude hMC2R membranes from CRE-bla-CHO-K1 cells stably expressing hMC2 receptor and hMRAP accessory protein) (Homo sapiens, UniProt Q01718)
# T1 construct: crude membrane fractions
# Test: hMC2 membrane binding assay ([125I]ACTH (1-39) Tyr23, SPA)
# Conditions: displacement of 0.2 nM [125I]ACTH (1-39) Tyr23 from hMC2R membranes, 1.5 hours at room temperature; read-out: MC2R binding potency
# Method: Crude membrane fractions are prepared from CRE-bla-CHO-K1 cells stably expressing hMC2 receptor and hMRAP accessory protein (Thermo Fisher). The cells are grown to 85-100% confluence on standard tissue culture dishes in GlutaMax DMEM growth media (Gibco) with following additives: 10% dialyzed FBS (Gemini), 0.1 mM NEAA (Gibco), 25 mM HEPES (Gibco), 5 μg/mL blasticidin (Goldbio), 100 μg/mL zeocin (Invitrogen), 600 μg/mL hygromycin (Goldbio). To prepare membranes, cells are scraped and collected in 1× Dulbecco's phosphate buffered saline (Corning) and then pelleted at 1000 RPM's. The cell pellet is reconstituted in membrane preparation buffer (20 mM HEPES, 6 mM MgCl2 and 1 mM EGTA, protease inhibitor tablets (Pierce) adjusted to pH 7.4), homogenized using a dounce homogenizer, and the resulting membrane fraction is pelleted by centrifugation at 12,000 RPM's. The membrane pellet is resuspended in membrane preparation buffer, snap freezed and stored at −80° C. for later use.
# Binding Assay for hMC2 Antagonists Protocol:
# The hMC2 membrane binding assay utilizes the following components: radiolabel [^125I]ACTH (1-39) Tyr23 (PerkinElmer), wheatgerm agglutinin coated PVT SPA beads (PerkinElmer), crude hMC2R membranes, and compounds. Briefly hMC2R membranes are incubated with SPA beads in binding assay buffer (50 mM HEPES, 5 mM MgCl2, 1 mM CaCl2), 0.20% BSA, protease inhibitor tablets (Pierce) adjusted to pH7.4) prior to assay initiation. […] Assay plates are read using a Top Count NXT and Ki values for compounds are determined using a GraphPad Prism 6 non-linear regression analysis.
# T1 sequence (Q01718 whole entry): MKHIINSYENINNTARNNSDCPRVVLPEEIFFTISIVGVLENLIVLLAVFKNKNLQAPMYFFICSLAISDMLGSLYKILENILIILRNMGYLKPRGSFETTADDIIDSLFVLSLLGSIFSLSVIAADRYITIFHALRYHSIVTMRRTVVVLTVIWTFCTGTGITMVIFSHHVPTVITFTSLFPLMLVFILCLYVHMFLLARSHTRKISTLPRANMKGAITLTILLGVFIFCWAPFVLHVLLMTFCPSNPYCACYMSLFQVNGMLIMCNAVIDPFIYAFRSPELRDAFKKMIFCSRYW
# T1 sequence (Q8TCY5 whole entry partner): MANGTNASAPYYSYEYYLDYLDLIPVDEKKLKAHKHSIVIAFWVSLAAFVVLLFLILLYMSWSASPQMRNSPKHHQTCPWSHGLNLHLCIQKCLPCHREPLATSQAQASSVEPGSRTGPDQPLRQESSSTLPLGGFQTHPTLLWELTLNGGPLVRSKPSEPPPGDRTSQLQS
row,Ki,Structure (SMILES)
1,< 10 nM,"COc1ccccc1-c1ccc(C2(C(=O)NC3CN(C)C3)CCN(c3ccc(Cl)cc3C#N)CC2)cn1 [Compound 1-92, 1-(4-chloro-2-cyanophenyl)-4-[6-(2-methoxyphenyl)pyridin-3-yl]-N-(1-methylazetidin-3-yl)piperidine-4-carboxamide]"
2,10 to 100 nM,"CCOc1ncccc1-c1ccc(C2(NC(=O)C3CN(C)C3)CCN(c3ccc(C(F)(F)F)cc3C#N)CC2)cc1 [Compound 2-16, N-{1-[2-cyano-4-(trifluoromethyl)phenyl]-4-[4-(2-ethoxypyridin-3-yl)phenyl]piperidin-4-yl}-1-methylazetidine-3-carboxamide]"
3,< 10 nM,"CCOc1ccccc1-c1ccc(C2(C(=O)N[C@H]3CCN(C)C3)CCN(c3ccc(C(F)(F)F)cc3F)CC2)cn1 [Compound 1-145, 4-[6-(2-ethoxyphenyl)pyridin-3-yl]-1-[2-fluoro-4-(trifluoromethyl)phenyl]-N-[(3S)-1-methylpyrrolidin-3-yl]piperidine-4-carboxamide]"
4,< 10 nM,"Cn1cccc1-c1ccc(C2(C(=O)NC[C@H]3CCCN3)CCN(c3ccc(C(F)(F)F)cc3C#N)CC2)cn1 [Compound 1-231, 1-[2-cyano-4-(trifluoromethyl)phenyl]-4-[6-(1-methyl-1H-pyrrol-2-yl)pyridin-3-yl]-N-{[(2R)-pyrrolidin-2-yl]methyl}piperidine-4-carboxamide]"
5,< 10 nM,"COc1ccccc1-c1ccc(C2(C(=O)NC[C@H]3CCN3)CCN(c3ccc(C(F)(F)F)cc3C#N)CC2)cn1 [Compound 1-236, N-{[(2R)-azetidin-2-yl]methyl}-1-[2-cyano-4-(trifluoromethyl)phenyl]-4-[6-(2-methoxyphenyl)pyridin-3-yl]piperidine-4-carboxamide]"
6,< 10 nM,"COc1ccccc1-c1ccc(C2(C(=O)NC[C@@H]3COCCN3C)CCN(c3ccc(C(F)(F)F)cc3C#N)CC2)cn1 [Compound 1-329, 1-[2-cyano-4-(trifluoromethyl)phenyl]-4-[6-(2-methoxyphenyl)pyridin-3-yl]-N-{[(3R)-4-methylmorpholin-3-yl]methyl}piperidine-4-carboxamide]"
7,< 10 nM,"CCOc1ncccc1-c1ccc(C2(C(=O)NC[C@@H](C)N(C)C)CCN(c3ccc(C(F)(F)F)cc3C#N)CC2)cn1 [Compound 1-333, 1-[2-cyano-4-(trifluoromethyl)phenyl]-N-[(2R)-2-(dimethylamino)propyl]-4-{2′-ethoxy-[2,3′-bipyridin]-5-yl}piperidine-4-carboxamide]"
8,< 10 nM,"CCOc1ncccc1-c1ccc(C2(C(=O)NCCN(C)C)CCN(c3ccc(C(F)(F)F)cc3Cl)CC2)cn1 [Compound 1-224, 1-[2-chloro-4-(trifluoromethyl)phenyl]-N-[2-(dimethylamino)ethyl]-4-{2′-ethoxy-[2,3′-bipyridin]-5-yl}piperidine-4-carboxamide]"
9,< 10 nM,"Cc1sccc1-c1ccc(C2(C(=O)N[C@@H]3CCN(C)C3)CCN(c3ccc(C(F)(F)F)cc3C#N)CC2)cn1 [Compound 1-112, 1-[2-cyano-4-(trifluoromethyl)phenyl]-N-[(3R)-1-methylpyrrolidin-3-yl]-4-[6-(2-methylthiophen-3-yl)pyridin-3-yl]piperidine-4-carboxamide]"
10,< 10 nM,"CCOc1ncccc1-c1ncc(C2(C(=O)N[C@@H](C)CN(C)C)CCN(c3ccc(C(F)(F)F)cc3C#N)CC2)cc1F [Compound 1-319, 1-[2-cyano-4-(trifluoromethyl)phenyl]-N-[(2S)-1-(dimethylamino)propan-2-yl]-4-{2′-ethoxy-3-fluoro-[2,3′-bipyridin]-5-yl}piperidine-4-carboxamide]"
11,< 10 nM,"CCOc1ncccc1-c1ccc(C2(C(=O)N[C@H]3CCN(C)C3)CCN(c3ccc(OC(F)(F)F)cc3C#N)CC2)cn1 [Compound 1-39, 1-[2-cyano-4-(trifluoromethoxy)phenyl]-4-{2′-ethoxy-[2,3′-bipyridin]-5-yl}-N-[(3S)-1-methylpyrrolidin-3-yl]piperidine-4-carboxamide]"
12,< 10 nM,"CCOc1ccccc1-c1ccc(C2(C(=O)NCCNC)CCN(c3ccc(C(F)(F)F)cc3Cl)CC2)cn1 [Compound 1-230, 1-[2-chloro-4-(trifluoromethyl)phenyl]-4-[6-(2-ethoxyphenyl)pyridin-3-yl]-N-[2-(methylamino)ethyl]piperidine-4-carboxamide]"
13,< 10 nM,"CNCCNC(=O)C1(c2cnc(-c3cccnc3OC)c(F)c2)CCN(c2ccc(C(F)(F)F)cc2Cl)CC1 [Compound 1-303, 1-[2-chloro-4-(trifluoromethyl)phenyl]-4-{3-fluoro-2′-methoxy-[2,3′-bipyridin]-5-yl}-N-[2-(methylamino)ethyl]piperidine-4-carboxamide]"
14,< 10 nM,"CCOc1ccc(F)cc1-c1ccc(C2(C(=O)N[C@@H]3CCN(C)C3)CCN(c3ccc(C(F)(F)F)cc3C#N)CC2)cn1 [Compound 1-69, 1-[2-cyano-4-(trifluoromethyl)phenyl]-4-[6-(2-ethoxy-5-fluorophenyl)pyridin-3-yl]-N-[(3R)-1-methylpyrrolidin-3-yl]piperidine-4-carboxamide]"
15,< 10 nM,"CCOc1ncccc1-c1ccc(C2(NC(=O)C3CN(C)C3)CCN(c3ccc(C(F)(F)F)cc3C#N)CC2)cn1 [Compound 2-32, N-{1-[2-cyano-4-(trifluoromethyl)phenyl]-4-{2′-ethoxy-[2,3′-bipyridin]-5-yl}piperidin-4-yl}-1-methylazetidine-3-carboxamide]"
16,< 10 nM,"COc1ccccc1-c1ccc(C2(C(=O)N[C@@H]3CNC[C@@H]3F)CCN(c3ccc(C(F)(F)F)cc3C#N)CC2)cn1 [Compound 1-237, 1-[2-cyano-4-(trifluoromethyl)phenyl]-N-[(3R,4S)-4-fluoropyrrolidin-3-yl]-4-[6-(2-methoxyphenyl)pyridin-3-yl]piperidine-4-carboxamide]"
17,10 to 100 nM,"CN1CC[C@@H](NC(=O)C2(c3ccc(-c4ccccc4CC#N)nc3)CCN(c3ccc(C(F)(F)F)cc3C#N)CC2)C1 [Compound 1-137, 1-[2-cyano-4-(trifluoromethyl)phenyl]-4-{6-[2-(cyanomethyl)phenyl]pyridin-3-yl}-N-[(3R)-1-methylpyrrolidin-3-yl]piperidine-4-carboxamide]"
18,< 10 nM,"CCOc1ncccc1-c1ccc(C2(C(=O)N[C@@H](C)CNC)CCN(c3ccc(C(F)(F)F)cc3C#N)CC2)cn1 [Compound 1-314, 1-[2-cyano-4-(trifluoromethyl)phenyl]-4-{2′-ethoxy-[2,3′-bipyridin]-5-yl}-N-[(2S)-1-(methylamino)propan-2-yl]piperidine-4-carboxamide]"
19,< 10 nM,"CCOc1ncccc1-c1ccc(C2(C(=O)NCCN(C)C)CCN(c3ccc(C(F)(F)F)cc3F)CC2)nn1 [Compound 1-335, N-[2-(dimethylamino)ethyl]-4-[6-(2-ethoxypyridin-3-yl)pyridazin-3-yl]-1-[2-fluoro-4-(trifluoromethyl)phenyl]piperidine-4-carboxamide]"
20,< 10 nM,"CN1CC(NC(=O)C2(c3ccc(-c4cccn4C)nc3)CCN(c3ccc(C(F)(F)F)cc3C#N)CC2)C1 [Compound 1-219, 1-[2-cyano-4-(trifluoromethyl)phenyl]-4-[6-(1-methyl-1H-pyrrol-2-yl)pyridin-3-yl]-N-(1-methylazetidin-3-yl)piperidine-4-carboxamide]"
21,< 10 nM,"CCOc1ncccc1-c1ccc(C2(C(=O)NC[C@H](CO)NC)CCN(c3ccc(C(F)(F)F)cc3C#N)CC2)cn1 [Compound 1-44, 1-[2-cyano-4-(trifluoromethyl)phenyl]-4-{2′-ethoxy-[2,3′-bipyridin]-5-yl}-N-[(2R)-3-hydroxy-2-(methylamino)propyl]piperidine-4-carboxamide]"
22,< 10 nM,"CN(C)CCCNC(=O)C1(c2ccc(-c3cccn3C)nc2)CCN(c2ccc(C(F)(F)F)cc2C#N)CC1 [Compound 1-207, 1-[2-cyano-4-(trifluoromethyl)phenyl]-N-[3-(dimethylamino)propyl]-4-[6-(1-methyl-1H-pyrrol-2-yl)pyridin-3-yl]piperidine-4-carboxamide]"
23,< 10 nM,"CCOc1ncccc1-c1ccc(C2(C(=O)N[C@@H]3CCNC3)CCN(c3ccc(C(F)(F)F)cc3C#N)CC2)nc1 [Compound 1-21, 1-[2-cyano-4-(trifluoromethyl)phenyl]-4-{2′-ethoxy-[3,3′-bipyridin]-6-yl}-N-[(3R)-pyrrolidin-3-yl]piperidine-4-carboxamide]"
24,10 to 100 nM,"COc1ccccc1-c1ccc(C2(C(=O)NC[C@H]3COCCN3C)CCN(c3ccc(C(F)(F)F)cc3C#N)CC2)cn1 [Compound 1-328, 1-[2-cyano-4-(trifluoromethyl)phenyl]-4-[6-(2-methoxyphenyl)pyridin-3-yl]-N-{[(3S)-4-methylmorpholin-3-yl]methyl}piperidine-4-carboxamide]"
25,< 10 nM,"COc1ccccc1-c1ncc(C2(NC(=O)CCN(C)C)CCN(c3ccc(C(F)(F)F)cc3C#N)CC2)cc1F [Compound 2-62, N-{1-[2-cyano-4-(trifluoromethyl)phenyl]-4-[5-fluoro-6-(2-methoxyphenyl)pyridin-3-yl]piperidin-4-yl}-3-(dimethylamino)propanamide]"
